Experimental data taken from patent US4863935A, “Mitomycin compounds having useful anti-tumor activity” (priority 1986, dated 1989).

Experiments:
[1] = system: lymphocytic Leukemia P-388; assay: Anti-tumour activity against lymphocytic Leukemia P-388 in mice; type: in vivo, mouse, female of CDF strain; conditions: for (ILSmax)c: (ILSmax of test compound)/(ILSmax of mitomycin C), ILS=(T-C)/C×100; for (TI)c: (TI of test compound)/(TI of mitomycin C), TI = OPD/dose which results in ILS30; for ED (optimal dose, highest survival) / ED (30% increase of life-span): Mus musculus, P388, ip, i.p. 24 h after implantation; for ED (optimal dose, highest survival): dose resulting in the highest survival ratio, 30 days, read-out: OPD; for ED (30% increase of life-span): read-out: Dose needed to give ILS30
From the text: Also, their therapeutic indexes, expressed by the formula:
TI=(OPD)/(dose which results in ILS30),
against lymphocytic Leukemia P-388 and the maximum increased life spans (ILSmax), defined by the formula: […]
(§1) As used herein, the term "LD50 " denotes the acute toxicity. The term "ED50 " denotes the administered amount needed for reducing the volume of Sarcoma 180 solid tumours in animals to 50% of the corresponding tumour volume in control (untreated) animals. The term "WBC4000 " denotes the minimum dose of the drug needed to reduce the number of peripheral leucocytes to 4000/mm^3. A greater TI value results in a broader tolerance to the drug, which is advantageous for higher anti-tumour activity and decreased toxicity. The term "T" used herein denotes the average survival days of the test animals administered with the test compound. The term "C" denotes the average survival days of the control (untreated) animals. The term "OPD" denotes the dose of the drug resulting in the highest survival ratio. The term "ILS30 " denotes a 30% increase of life-span.
The experiment was carried out in the following manner. 1×10^6 lymphocytic Leukemia P-388 tumour cells were abdominally implanted into each mouse of a group consisting of 5 mice (body weight about 22 g; female of CDF strain). 24 hours after implantation, a physiological saline solution (0.2 ml) containing the test compound with or without addition of Tween 80 was abdominally given to the test animal.
Table 7 indicates anti-tumour activities of selected Compounds (I) against lyphocytic Leukemia P-388.

[2] = LD50 acute toxicity, ddy mice, single abdominal injection; conditions: mouse, in vivo, ip, 5 ddy mice, 14 days observation, Behrens-Koerber's method
From the text: as §1
LD50, ED50 and WBC4000 were respectively determined as follows:
Each animal of the test group, consisting of 5 ddy mice, was administered once with a test compound by abdominal injection. […] To determine the LD50 value, Behrens-Koerber's method was applied.

Sarcoma 180 solid tumour = assay: ED50 against Sarcoma 180 solid tumour implanted in mice; type: in vivo, male mouse (ddy strain); conditions: for (CI)c: (CI of test compound)/(CI of mitomycin C), CI = LD50/ED50; for ED50: Mus musculus, Sarcoma-180, iv, 168 h, i.v. (tail vein) 24 h after implantation, tumour volume at 7 days, dose for T/C of 0.5
From the text: With regard to the so-called chemotherapeutic index viz. the CI value against sarcoma 180 solid tumour, expressed by the formula: […]
as §1
the term (CI)c denotes (CI of the test compound)/(CI of mitomycin C), and
5×10^6 sarcoma 180 solid tumor cells were abdominally implanted into ddy mice. 7 days after this, ascites cells were sampled. The cells were washed once with a sterilized physiological saline and were used to prepare a cell suspension containing 5×10^7 cells per ml of a sterilized physiological saline. On each occasion, 0.1 ml of the cell suspension was subcutaneously implanted under the skin of the right armpit of a male mouse (ddy strain; body weight 20±2 g). The test compound which was dissolved in a physiological saline with or without addition of Tween 80 was injected into the tail vein of each animal of a group consisting of 5 mice at a dose of 0.1-0.2 ml 24 hours after the implantation of the tumor cells.
The anti-tumor activity was determined in the following manner:
7 days after the implantation, the major axis (a) and the minor axis (b) of the tumour were measured to calculate a value of (a×b^2)/2 which corresponds to the volume of the tumour. The antitumour activity was expressed by the ratio of the volume of the tumour (T) of the group of animals administered with the test compound to the corresponding volume of tumours (C) of the untreated animals.
On graph paper, T/C was plotted on the ordinate using an arithmetic scale and the administered amount of test compound was plotted on the abscissa using a logarithmic scale. The relationship between the dose and T/C was shown by a straight line determined by the method of least squares, from which ED50 viz. a dose corresponding to T/C of 0.5 was obtained.

## CNC(=O)SCCNC1=C(C)C(=O)C2=C(C1=O)[C@@H](COC(N)=O)[C@@]1(OC)[C@H]3N[C@H]3CN21 [Compound 1, 7-N--(2-methylaminocarbonylthioethyl)mitomycin C]
[1]
  (ILSmax)c: 1.44
  (TI)c: 1.33
  ED (optimal dose, highest survival): 25 mg/kg
  ED (30% increase of life-span): 0.78 mg/kg
[2]
  LD50 at 336 h: > 100 mg/kg
Sarcoma 180 solid tumour
  (CI)c: > 1.39
  ED50: 25.8 mg/kg

## CCC(CC)NC(=O)SCCNC1=C(C)C(=O)C2=C(C1=O)[C@@H](COC(N)=O)[C@@]1(OC)[C@H]3N[C@H]3CN21 [Compound 11, 7-N--[2-(1-ethylpropyl)aminocarbonylthioethyl]mitomycin C]
[1]
  (ILSmax)c: > 1.47
  (TI)c: 1.86
  ED (optimal dose, highest survival): 25 mg/kg
  ED (30% increase of life-span): 1.04 mg/kg
[2]
  LD50 at 336 h: 45 mg/kg
Sarcoma 180 solid tumour
  (CI)c: 1.40
  ED50: 11.1 mg/kg

## CCNC(=O)SCCNC1=C(C)C(=O)C2=C(C1=O)[C@@H](COC(N)=O)[C@@]1(OC)[C@H]3N[C@H]3CN21 [Compound 23, 7-N--(2-ethylaminocarbonylthioethyl)mitomycin C]
[1]
  (ILSmax)c: 1.16
  (TI)c: 3.28~1.64
  ED (optimal dose, highest survival): 25 mg/kg
  ED (30% increase of life-span): 0.33 mg/kg
[2]
  LD50 at 336 h: 52.5 mg/kg
Sarcoma 180 solid tumour
  (CI)c: 2.48
  ED50: 8.3 mg/kg

## CO[C@@]12[C@H](COC(N)=O)C3=C(C(=O)C(C)=C(NCCSC(=O)N4CCC[C@H]4C(=O)NCc4ccccc4)C3=O)N1C[C@@H]1N[C@@H]12 [Compound 14, 7-N--[2-((S)--2-benzylaminocarbonylpyrrolidino)-carbonylthioethyl]mitomycin C]
[1]
  (ILSmax)c: 1.44
  (TI)c: 0.93
  ED (optimal dose, highest survival): 50 mg/kg
  ED (30% increase of life-span): 3.46 mg/kg
[2]
  LD50 at 336 h: 75 mg/kg
Sarcoma 180 solid tumour
  (CI)c: 2.23
  ED50: 13.6 mg/kg

## COC(=O)[C@@H](NC(=O)SCCNC1=C(C)C(=O)C2=C(C1=O)[C@@H](COC(N)=O)[C@@]1(OC)[C@H]3N[C@H]3CN21)C(C)C [Compound 9, 7-N--[2-((S)--1-methoxycarbonyl-2-methylpropyl)-aminocarbonylthioethyl]mitomycin C]
[1]
  (ILSmax)c: > 1.54
  (TI)c: 0.92
  ED (optimal dose, highest survival): 12.5 mg/kg
  ED (30% increase of life-span): 0.84 mg/kg
[2]
  LD50 at 336 h: 37.5 mg/kg
Sarcoma 180 solid tumour
  (CI)c: 0.81
  ED50: 15.9 mg/kg

## CO[C@@]12[C@H](COC(N)=O)C3=C(C(=O)C(C)=C(NCCSC(=O)NCC(C)C)C3=O)N1C[C@@H]1N[C@@H]12 [Compound 24, 7-N--(2-isobutylaminocarbonylthioethyl)mitomycin C]
[1]
  (ILSmax)c: 1.26
  (TI)c: 2.16
  ED (optimal dose, highest survival): 25 mg/kg
  ED (30% increase of life-span): 0.5 mg/kg
[2]
  LD50 at 336 h: 22.5 mg/kg
Sarcoma 180 solid tumour
  (CI)c: 0.89
  ED50: 9.9 mg/kg

## CCNC(=S)SCCNC1=C(C)C(=O)C2=C(C1=O)[C@@H](COC(N)=O)[C@@]1(OC)[C@H]3N[C@H]3CN21 [Compound 39, 7-N--(2-ethylaminothiocarbonylthioethyl)mitomycin C]
[1]
  (ILSmax)c: > 1.60
  (TI)c: 2.74
  ED (optimal dose, highest survival): 25 mg/kg
  ED (30% increase of life-span): 0.57 mg/kg
[2]
  LD50 at 336 h: 45 mg/kg
Sarcoma 180 solid tumour
  (CI)c: 2.40
  ED50: 7.8 mg/kg

## CO[C@@]12[C@H](COC(N)=O)C3=C(C(=O)C(C)=C(NCCSC(=O)NC4CCN(Cc5ccccc5)CC4)C3=O)N1C[C@@H]1N[C@@H]12 [Compound 12, 7-N--[2-(1-benzylpiperidine-4-yl)aminocarbonylthioethyl]mitomycin C]
[1]
  (ILSmax)c: > 1.47
  (TI)c: > 1.10
  ED (optimal dose, highest survival): 12.5 mg/kg
  ED (30% increase of life-span): < 0.78 mg/kg
[2]
  LD50 at 336 h: 37.5 mg/kg
Sarcoma 180 solid tumour
  (CI)c: 1.61
  ED50: 8.1 mg/kg

## COC(=O)[C@@H]1CCCN1C(=O)SCCNC1=C(C)C(=O)C2=C(C1=O)[C@@H](COC(N)=O)[C@@]1(OC)[C@H]3N[C@H]3CN21 [Compound 6, 7-N--[2-((S)--2-methoxycarbonylpyrrolidino)carbonylthioethyl]mitomycin C]
[1]
  (ILSmax)c: > 1.82
  (TI)c: 9.09
  ED (optimal dose, highest survival): 100 mg/kg
  ED (30% increase of life-span): 1.1 mg/kg
[2]
  LD50 at 336 h: > 50 mg/kg
Sarcoma 180 solid tumour
  (CI)c: 1.77
  ED50: 10.1 mg/kg

## CCC(C)NC(=O)SCCNC1=C(C)C(=O)C2=C(C1=O)[C@@H](COC(N)=O)[C@@]1(OC)[C@H]3N[C@H]3CN21 (stereo partly shown) [Compound 30, 7-N--(2-sec-butylaminocarbonylthioethyl)mitomycin C]
[1]
  (ILSmax)c: 1.60
  (TI)c: 3.20
  ED (optimal dose, highest survival): 25 mg/kg
  ED (30% increase of life-span): 0.65 mg/kg
[2]
  LD50 at 336 h: 37.5 mg/kg
Sarcoma 180 solid tumour
  (CI)c: 1.53
  ED50: 9.6 mg/kg

## CO[C@@]12[C@H](COC(N)=O)C3=C(C(=O)C(C)=C(NCCSC(=O)NC(C)(C)C)C3=O)N1C[C@@H]1N[C@@H]12 [Compound 5, 7-N--(2-t-butylaminocarbonylthioethyl)mitomicin C]
[1]
  (ILSmax)c: > 1.17
  (TI)c: 1.80
  ED (optimal dose, highest survival): 25 mg/kg
  ED (30% increase of life-span): 1.32 mg/kg
[2]
  LD50 at 336 h: 30 mg/kg
Sarcoma 180 solid tumour
  (CI)c: 1.22
  ED50: 8.8 mg/kg

## CO[C@@]12[C@H](COC(N)=O)C3=C(C(=O)C(C)=C(NCCSC(=O)NCc4ccccc4)C3=O)N1C[C@@H]1N[C@@H]12 [Compound 22, 7-N--(2-benzylaminocarbonylthioethyl)mitomycin C]
[1]
  (ILSmax)c: 1.43
  (TI)c: 3.36
  ED (optimal dose, highest survival): 25 mg/kg
  ED (30% increase of life-span): 0.62 mg/kg
[2]
  LD50 at 336 h: 37.5 mg/kg
Sarcoma 180 solid tumour
  (CI)c: 1.44
  ED50: 10.2 mg/kg

## CO[C@@]12[C@H](COC(N)=O)C3=C(C(=O)C(C)=C(NCCSC(=O)NC(COCc4ccccc4)C(C)C)C3=O)N1C[C@@H]1N[C@@H]12 (stereo partly shown) [Compound 13]
[1]
  (ILSmax)c: > 2.57
  (TI)c: 1.96
  ED (optimal dose, highest survival): 7.5 mg/kg
  ED (30% increase of life-span): 0.33 mg/kg
[2]
  LD50 at 336 h: 26.3 mg/kg
Sarcoma 180 solid tumour
  (CI)c: 2.01
  ED50: 4.5 mg/kg

## CO[C@@]12[C@H](COC(N)=O)C3=C(C(=O)C(C)=C(NCCSC(=O)N4CCC[C@H]4C(=O)Nc4ccc(O)cc4)C3=O)N1C[C@@H]1N[C@@H]12 [Compound 45, 7-N--{2-[(S)--2-(4-hydroxyanilino)carbonylpiperidino]carbonylthioethyl}mitomycin C]
[2]
  LD50 at 336 h: > 100 mg/kg
Sarcoma 180 solid tumour
  (CI)c: > 0.51
  ED50: 89.1 mg/kg

## CO[C@@]12[C@H](COC(N)=O)C3=C(C(=O)C(C)=C(NCCSC(=O)NC(CC(=O)OCc4ccccc4)c4ccccc4)C3=O)N1C[C@@H]1N[C@@H]12 (stereo partly shown) [Compound 10, 7-N--[2-(1-phenyl-2-benzyloxycarbonylethyl)aminocarbonylthioethyl]mitomycin C]
[2]
  LD50 at 336 h: > 100 mg/kg
Sarcoma 180 solid tumour
  (CI)c: > 0.43
  ED50: 95.5 mg/kg

## CCCNC(=S)SCCNC1=C(C)C(=O)C2=C(C1=O)[C@@H](COC(N)=O)[C@@]1(OC)[C@H]3N[C@H]3CN21 [Compound 40, 7-N--(2-n-propylaminothiocarbonylthioethyl)mitomycin C]
[2]
  LD50 at 336 h: > 25 mg/kg
Sarcoma 180 solid tumour
  (CI)c: > 1.03
  ED50: 10.1 mg/kg

## CO[C@@]12[C@H](COC(N)=O)C3=C(C(=O)C(C)=C(NCCSC(=O)NC(C)(C)C(=O)OC(C)(C)C)C3=O)N1C[C@@H]1N[C@@H]12 [Compound 34, 7-N--[2-(1-methyl-1-t-butoxycarbonylethyl)-aminocarbonylthioethyl]mitomycin C]
[2]
  LD50 at 336 h: 37.5 mg/kg
Sarcoma 180 solid tumour
  (CI)c: 1.14
  ED50: 13.7 mg/kg
